Measurements from patent publication US11912707B2 (priority 2016, dated 2024).
Read-outs that look alike come from different tables or passages of the source.

Columns and labels:
[1] = target: T1, human mu-opioid receptor (MOR) (Homo sapiens, UniProt P35372); conditions: Kruegel, A. C. et al. 2016; cited from earlier work
T1 construct: expressed in transfected cells; host or cells: HEK-293T

MOR [2] = target: MOR (Homo sapiens, UniProt P35372); conditions: Kruegel, A. C. et al. 2016; cited from earlier work
[3] = target: T2, human kappa-opioid receptor (KOR) (Homo sapiens, UniProt P41145); conditions: Kruegel, A. C. et al. 2016; cited from earlier work
T2 construct: expressed in transfected cells; host or cells: HEK-293T

[4] = target: T2, human kappa-opioid receptor (KOR); assay: BRET assay measuring G protein activation, antagonist competition vs U-50,488, human KOR; type: cell-based; conditions: for Inhibition of the agonist activity of U-50,488 at human KOR: concentration of agonist = 320 nM, FIG. 1
Protocol: (§1) Human MOR, KOR, or DOR cDNA was transfected alongside GαoB with RLuc8 inserted at position 91 (GαoB-RLuc8), Gβ1 (β1), and Gγ2 fused to the full-length mVenus at its N terminus (mVenus-γ2) (2.5 μg MOR/DOR/KOR, 0.125 μg GαoB-RLuc8, 6.25 μg β1; 6.25 μg mVenus-γ2) into HEK-293T cells (5×10^6 cells/plate) in 10-cm dishes using PEI (Polysciences Inc.; Warrington, PA) in a 1:1 ratio diluted in Opti-MEM (Life Technologies Corp.; Grand Island, NY) to assay for G protein activation as described previously.^2,3 Cells were maintained in Dulbecco's Modified Eagle Medium (high glucose #11965; Life Technologies) supplemented with 10% FBS (Premium Select, Atlanta Biologicals; Atlanta, GA) and 100 U/mL penicillin and 100 μg/mL streptomycin (#15140, Life Technologies). After 24 hours the media was changed, and the experiment was performed 24 hours later (48 hours after transfection).
(§2) Transfected cells were dissociated and resuspended in phosphate-buffered saline (PBS). Approximately 200,000 cells/well were added to a black-framed, white well 96-well plate (#60050; Perkin Elmer; Waltham, MA). The microplate was centrifuged and the cells were resuspended in phosphate-buffered saline (PBS). For agonist experiments, after 5 minutes, 5 μM of the luciferase substrate coelenterazine H was added to each well. After 5 minutes, ligands were added and the BRET signal was measured at 5 minutes on a PHERAstar FS plate reader. For antagonist competition experiments, cells were preincubated with the antagonist at varying concentrations for 30 minutes. Coelenterazine H (5 μM) was then added to each well for 5 minutes. […] The BRET signal was quantified by calculating the ratio of the light emitted by the energy acceptor, mVenus (510-540 nm), over the light emitted by the energy donor, RLuc8 (485 nm). This drug-induced BRET signal was normalized using the Emax of [D-Ala2, N-Me-Phe4, Gly5-ol]-enkephalin (DAMGO), U-50,488, or [D-Pen(2,5)]enkephalin (DPDPE) as the maximal response at MOR, KOR, and DOR respectively. Dose response curves were fit using a three-parameter logistic equation in GraphPad Prism 6.

[5] = target: T1, human mu-opioid receptor (MOR); assay: BRET assay measuring G protein activation, agonist mode, human MOR; type: cell-based
Protocol: as §1, §2

[6] = Stability in human liver microsomes; type: in vitro ADME; conditions: pH 7.4, 2 μM test compound, 0.42 mg/mL microsomal protein, 37° C., NADPH, read-out: t1/2 in human liver microsomes
Protocol: Microsomal incubations were carried out in 96-well plates in 5 aliquots of 40 μL each (one for each time point). Liver microsomal incubation medium contained PBS (100 mM, pH 7.4), MgCl2 (3.3 mM), NADPH (3 mM), glucose-6 phosphate (5.3 mM), and glucose-6-phosphate dehydrogenase (0.67 units/ml) with 0.42 mg of liver microsomal protein per mL. Control incubations were performed replacing the NADPH-cofactor system with PBS. Test compound (2 μM, final solvent concentration 1.6%) was incubated with microsomes at 37° C., shaking at 100 rpm. Incubations were performed in duplicates. Five time points over 40 minutes were analyzed. The reactions were stopped by adding 12 volumes of 90% acetonitrile-water to incubation aliquots, followed by protein sedimentation by centrifuging at 5500 rpm for 3 minutes. Supernatants were analyzed for remaining test compound using an HPLC system coupled with a tandem mass spectrometer.

[7] = target: T3, human delta-opioid receptor (DOR) (Homo sapiens, UniProt P41143); assay: BRET assay measuring G protein activation, antagonist competition vs DPDPE, human DOR; type: cell-based; conditions: for Extent of antagonism at Human DOR: competing agonist DPDPE (50 nM)
T3 construct: expressed in transfected cells; host or cells: HEK-293T
Protocol: as §1, §2

MOR [8] = conditions: Takayama 2002; Matsumoto 2004; cited from earlier work
[9] = inhibition of reference agonist U-50,488 at 5x its EC50 (320 nM), read-out: Antagonist IC50, Human KOR
[10] = read-out: Antagonist IC50, Human DOR

SMILES | Type of activity at MOR [1] | beta-arrestin recruitment at MOR (MOR [2]) | Type of activity at KOR [3] | IC50 [4] [µM] | Inhibition of the agonist activity of U-50,488 at human KOR [4] | Emax ([5]; normalized to Emax of DAMGO) [%] | half-life at 2 μM [6] [h] | IC50 [7] [µM] | further results
CC[C@@H]1CN2CC[C@@]3(O)C(=Nc4cccc(OC)c43)[C@@H]2C[C@@H]1/C(=C\OC)C(=O)OC [7-hydroxymitragynine, 7-Hydroxymitragynine] | partial MOR agonists | failing to recruit beta-arrestin | competitive kappa-opioid receptor (KOR) antagonists | 7.9 | fully inhibit | 60 | 4.38 | 15.6 | Ki [4]: 0.49 µM; binding affinities for the MOR (MOR [8]): nanomolar
CC[C@@H]1CN2CC[C@@]3(O)C(=Nc4cccc(OC)c43)[C@@H]2C[C@@H]1/C(=C/OC)C(=O)OC [(Z)-7-hydroxymitragynine, methyl (Z)-2-((2S,3S,7aS,12bS)-3-ethyl-7a-hydroxy-8-methoxy-1,2,3,4,6,7,7a,12b-octahydroindolo[2,3-a]quinolizin-2-yl)-3-methoxyacrylate] |  |  |  | > 50 |  | 64 |  | > 50 | 
CC[C@@H]1CN2CCc3c([nH]c4cccc(OC)c34)[C@@H]2C[C@@H]1/C(=C/OC)C(=O)OC [(Z)-mitragynine, methyl (Z)-2-((2S,3S,12bS)-3-ethyl-8-methoxy-1,2,3,4,6,7,12,12b-octahydroindolo[2,3-a]quinolizin-2-yl)-3-methoxyacrylate] |  |  |  |  |  |  |  |  | IC50 [4, 9]: 42 µM; Extent of antagonism at Human DOR [7]: partial; IC50 [7, 10]: > 100 µM
[2H]C([2H])([2H])O/C=C(/C(=O)OC([2H])([2H])[2H])[C@H]1C[C@H]2c3[nH]c4cccc(OC([2H])([2H])[2H])c4c3CCN2C[C@H]1CC [Compound 18, Methyl-d3 (E)-2-((2S,3S,12bS)-3-ethyl-8-(methoxy-d3)-1,2,3,4,6,7,12,12b-octahydroindolo[2,3-a]quinolizin-2-yl)-3-(methoxy-d3)acrylate] |  |  |  |  |  |  | 0.585 |  | 
[2H]CO/C=C(/C(=O)OC([2H])([2H])[2H])[C@H]1C[C@H]2C3=Nc4cccc(OC([2H])([2H])[2H])c4[C@@]3(O)CCN2C[C@H]1CC [Compound 19, Methyl-d3 (E)-2-((2S,3S,7aS,12bS)-3-ethyl-7a-hydroxy-8-(methoxy-d3)-1,2,3,4,6,7,7a,12b-octahydroindolo[2,3-a]quinolizin-2-yl)-3-(methoxy-d)acrylate] |  |  |  |  |  |  | 6.57 |  | 
CC[C@@H]1CN2CC[C@]3(Nc4cccc(OC)c4C3=O)[C@@H]2C[C@@H]1/C(=C\OC)C(=O)OC [mitragynine pseudoindoxyl, methyl (E)-2-((2S,6′S,7′S,8a′S)-6′-ethyl-4-methoxy-3-oxo-2′,3′,6′,7′,8′,8a′-hexahydro-5′H-spiro[indoline-2,1′-indolizin]-7′-yl)-3-methoxyacrylate] | partial MOR agonists | failing to recruit beta-arrestin | competitive kappa-opioid receptor (KOR) antagonists | 4.8 | fully inhibit | 52 |  | 0.609 | EC50 [5]: 0.0145 µM
CC[C@@H]1CN2CCc3c([nH]c4cccc(OC)c34)[C@@H]2C[C@@H]1/C(=C\OC)C(=O)OC [mitragynine, Mitragynine] | partial MOR agonists | failing to recruit beta-arrestin | competitive kappa-opioid receptor (KOR) antagonists |  | fully inhibit |  | 0.447 |  | Ki ([4]; Schild analysis, read-out: Schild pA2 (an estimate of Ki), Human KOR (converted)): 1.4 µM; IC50 [4, 9]: 8.5 µM; Emax, Human MOR ([5]; normalized to Emax of DAMGO): 34%; Extent of antagonism at Human DOR [7]: partial; IC50 [7, 10]: > 50 µM; binding affinities for the MOR (MOR [8]): nanomolar
